From US6162610A, “Xanthan-ester and acridan substrates for horseradish peroxidase” (Tropix, Inc., priority 1998, dated 2000)

Key:
HRP [1] = target: T1, HRP (Armoracia rusticana, UniProt P00433); assay: Effect of detergents and polymers on chemiluminescent signal from xanthene substrate with HRP; type: biochemical, horseradish; details: 5 fmol HRP; for Signal + HRP: 19 min incubation
T1 sequence (P00433 31-338 limits assumed): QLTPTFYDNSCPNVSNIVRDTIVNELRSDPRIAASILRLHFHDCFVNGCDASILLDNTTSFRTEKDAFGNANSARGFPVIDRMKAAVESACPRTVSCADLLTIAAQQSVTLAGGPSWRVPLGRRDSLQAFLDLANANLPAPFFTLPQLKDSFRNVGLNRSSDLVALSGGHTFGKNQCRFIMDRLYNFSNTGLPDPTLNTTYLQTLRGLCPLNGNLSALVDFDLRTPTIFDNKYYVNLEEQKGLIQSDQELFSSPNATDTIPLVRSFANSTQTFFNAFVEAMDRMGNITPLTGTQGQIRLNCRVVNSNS
Description: (§1) Detergent was added to the buffer solution to increase the solubility of the assay components. The use of polymeric quaternary amines, neutral detergents and cationic detergents was compared using polyvinylbenzyltributylammonium chloride (Sapphire II, Tropix), Tween-20 (Sigma) and […] (CTAB, Sigma). Luminescence was measured in white opaque microplate wells using a Dynatech ML3000 luminometer. First, background signal was measured after the addition of hydrogen peroxide (10 μL of 3.5 mM stock solution) to 0.12 mL of 1.17 mM xanthene substrate (14) in 0.1 M citrate buffer pH 7.0 containing, 0.42 mg/mL hydroxypropylmethylcellulose and 4-iodophenol (iodophenol concentration was 71.4 μg/mL for the Sapphire II and Tween-20 solutions and 178.6 μg/mL for the CTAB solution) after a 19 minute incubation. HRP, 10 μL containing 5 fmol, was added to each well and the chemiluminescence was measured after a 19 min incubation.

HRP [2] = assay: as above; type: biochemical, horseradish; details: H2O2, no HRP, 19 minute incubation, citrate buffer pH 7.0
Description: as §1

[3] = target: T2, horseradish peroxidase (HRP, Type VIA) (Armoracia rusticana, UniProt P00433); assay: Comparison of Xanthene substrate (14) and Enhanced Chemiluminescence (ECL), HRP dilution series; type: biochemical; details: for RLU: Xanthene substrate with 4-phenylphenol, Emerald II, read after 40 minutes; for S/N: Xanthene substrate, 40 minutes
T2 sequence (P00433 31-338 limits assumed): T1 sequence (P00433 31-338 limits assumed)
Description: The following conditions were used for the comparison of ECL(a commercially available optimized reagent containing Luminol-an amino-substituted cyclic acylhydrazide) and Xanthene substrate (14). ECL reagents were obtained from Amersham and were used as recommended by the manufacturer. Aliquots of horseradish peroxidase (HRP, Type VIA), 10 μL, containing 0,0.5, 5.0, 50.0, 500.0 and 5000.0 attomoles HRP were then added to 0.13 mL of each reagent formulation. To evaluate Xanthene substrate, hydrogen peroxide (10 μL of a 3.5 mM stock) was added to 10 μL of each HRP dilution and the reaction was initiated by addition of a solution of 0.12 mL of 1.17 mM Xanthene substrate in 0.1 M citrate buffer pH 7.0 containing 1.22 mM 4-phenylphenol, 0.42 mg/mL hydroxypropylmethylcellulose and 0.167 mg/mL Emerald II. The chemiluminescent signal was measured in a Dynatech ML3000 luminometer after 1 minute for ECL and 40 minutes for Xanthene substrate.

[4] = Tween-20, 4-iodophenol 71.4 μg/mL

O=C(Oc1ccccc1)C1c2ccccc2Oc2cc(O)ccc21 (stereo not shown) [compound 14, 3-Hydroxy-9H-9-xanthene-carboxylic acid, phenyl ester]
S/N (HRP [1]; CTAB): 1.5 | Signal + HRP (HRP [1]; CTAB, 4-iodophenol 178.6 μg/mL): 3.78 | S/N (HRP [1]; Sapphire II): 15.4 | Signal + HRP (HRP [1]; Sapphire II, 4-iodophenol 71.4 μg/mL): 229.05 | S/N (HRP [1]; Tween-20): 1.8 | Signal + HRP (HRP [1]; [4]): 0.0439 | Background (HRP [2]; CTAB, 4-iodophenol 178.6 μg/mL): 2.45 | Background (HRP [2]; Sapphire II (polyvinylbenzyltributylammonium chloride), 4-iodophenol 71.4 μg/mL): 14.83 | Background (HRP [2]; [4]): 0.0242 | RLU ([3]; HRP 0.5 amol): 14.12 RLU | S/N ([3]; HRP 0.5 amol): 1.11 | RLU ([3]; HRP 5 amol): 17.52 RLU | S/N ([3]; HRP 5 amol): 1.37 | RLU ([3]; HRP 50 amol): 63.12 RLU | S/N ([3]; HRP 50 amol): 4.95 | RLU ([3]; HRP 500 amol): 353.31 RLU | S/N ([3]; HRP 500 amol): 27.70 | RLU ([3]; HRP 5000 amol): 740.51 RLU | S/N ([3]; HRP 5000 amol): 58.06
